Assay results taken from US12606528B2, “Methods and materials for inhibiting NF-kB activity” (University of Pittsburgh - Of the Commonwealth System of …, priority 2019, dated 2026).
Read-outs that look alike come from different tables or passages of the source.

Test system: NF-κB
Assay: NF-κB assay: THP1-NF-κB-LUC cells, LPS-stimulated secreted luciferase
Format: cell-based
Conditions: THP1-NF-κB-LUC cells, read-out: IC50 (NF-κB assay)
Experimental: FIG. 1 contains line plots showing NF-κB activity of exemplified compounds. 25k THP1-NF-κB-LUC cells were dispensed into 384 well plate (per well). Cells were treated with compounds (2 μM and 0.2 μM) for 2 hours before addition of LPS (10 ng/mL) for 18 hours. Secreted luciferase activity were measured using quant-luc reagents (1 bag of luc reagent dilute to 40 mL, use 10 μL per well). Data were normalized to vehicle control and graphed. Structures of selected exemplified compounds are shown.
FIG. 2 contains heat charts showing NF-κB activity of exemplified compounds as a function of concentration. 25k THP1-NF-κB-LUC cells were dispensed into 384 well plate (per well). Cells were treated with compounds (with serial dilution) for 2 hours before addition of LPS (10 ng/ml) for 18 hours. Secreted luciferase activity were measured using quant-luc reagents (1 bag of luc reagent dilute to 40 mL, use 10 μL per well). Structures of selected exemplified compounds are shown.
25k THP1-NF-κB-LUC cells were dispensed into 384 well plate (per well). Cells were treated with compounds with various concentrations for 2 hours before addition of LPS (10 ng/mL) for 18 hours. Secreted luciferase activity were measured using quant-luc reagents (1 bag of luc reagent dilute to 40 mL, use 10 μL per well). Data were normalized to vehicle control and graphed. Compound IC50 towards inhibiting NF-κB were determined through Prism. Similarly, 10k human PBMCs cells were cultured in 384 well plate (per well). Cells were treated with compounds with various concentrations for 2 hours before addition of LPS (10 ng/ml) for 18 hours, and supernatants were collected and assayed for TNF ELISA. Compound IC50 towards inhibiting TNF release were determined through Prism. • Activity: “+”>10 μM, “++”>1 μM and <10 μM, “+++”>0.1 μM and <1 μM, “++++”<0.1 μM.

[1] = compounds 2 hours before LPS (10 ng/mL) for 18 hours, secreted luciferase

SMILES | IC50 (LPS-stimulated) | IC50 [1]
Cc1cccc(-c2nc3ccc(C(=O)NCCN(C)C4CCCCC4)cc3nc2-c2cccc(C)c2)c1 [BC18474] | 1000 to 10000 nM | –
COc1ccc2[nH]cc(S(=O)(=O)c3ccc(C#N)cc3)c(=O)c2c1 [BC18312] | – | > 10000 nM
O=C(NCc1ccccn1)c1ccc2nc(-c3ccccc3)c(-c3ccccc3)nc2c1 [BC18410] | < 100 nM | –
Cc1ccc(S(=O)(=O)c2cn(Cc3cccc(C)c3)c3ccc(F)cc3c2=O)cc1 [BC18328] | – | 1000 to 10000 nM
CSc1oc(-c2ccccc2)nc1S(=O)(=O)c1ccc(F)cc1 [BC18502] | > 10000 nM | –
O=c1c(S(=O)(=O)c2cccc(F)c2)c[nH]c2c(F)cccc12 [BC18301] | – | 1000 to 10000 nM
CCOc1ccc(-c2nc3ccc(C(=O)NCCN(CC)CC)cc3nc2-c2ccc(OCC)cc2)cc1 [BC18411] | 1000 to 10000 nM | –
N#Cc1cccc(S(=O)(=O)c2c[nH]c3cc(C#N)ccc3c2=O)c1 [BC18310] | – | < 100 nM
COc1cccc(CNC(=O)c2ccc3nc(-c4ccc(F)cc4)c(-c4ccc(F)cc4)nc3c2)c1 [BC18408] | 100 to 1000 nM | –
O=C(NC1CCCCC1)c1ccc2nc(-c3ccc(F)cc3)c(-c3ccc(F)cc3)nc2c1 [BC18431] | 100 to 1000 nM | –
Cc1cccc(-c2nc3ccc(C(=O)NCCN4CCCCC4C)cc3nc2-c2cccc(C)c2)c1 (stereo not drawn) [BC18441] | 1000 to 10000 nM | –
CCn1cc(S(=O)(=O)c2ccc(C)cc2)c(=O)c2cc(F)ccc21 [BC18325] | – | > 10000 nM
O=C(NCCCN1CCOCC1)c1ccc2nc(-c3ccc(F)cc3)c(-c3ccc(F)cc3)nc2c1 [BC18437] | < 100 nM | –
O=c1c(S(=O)(=O)c2cc(Cl)cc(Cl)c2)c[nH]c2ccc(Cl)cc12 [BC18304] | – | 1000 to 10000 nM
CCc1ccc(S(=O)(=O)c2c[nH]c3cc(F)c(F)cc3c2=O)cc1 [BC18320] | – | < 100 nM
Cc1ccc(CNC(=O)c2ccc3nc(-c4cccc(C)c4)c(-c4cccc(C)c4)nc3c2)cc1 [BC18468] | > 10000 nM | –
Cc1cccc(CNC(=O)c2ccc3nc(-c4ccccc4)c(-c4ccccc4)nc3c2)c1 [BC18445] | 100 to 1000 nM | –
Cc1ccc(S(=O)(=O)c2c[nH]c3ccc(F)cc3c2=O)cc1F [BC18303] | – | < 100 nM
CN(C)CCNC(=O)c1ccc2nc(-c3ccc(F)cc3)c(-c3ccc(F)cc3)nc2c1 [BC18480] | < 100 nM | –
O=S(=O)(c1ccccc1)c1nc(-c2ccc(F)cc2)oc1SCc1ccccc1F [BC18504] | 1000 to 10000 nM | –
CC1CCCCN1CCNC(=O)c1ccc2nc(-c3ccccc3)c(-c3ccccc3)nc2c1 (stereo not drawn) [BC18483] | < 100 nM | –
CS(=O)(=O)c1oc(-c2ccc(F)cc2)nc1S(=O)(=O)c1ccc(Cl)cc1 [BC18522] | < 100 nM | –
CNC(=O)c1ccc2nc(-c3cccc(C)c3)c(-c3cccc(C)c3)nc2c1 [BC18407] | 1000 to 10000 nM | –

SMILES | IC50 (LPS-stimulated) | IC50 [1]
COCCNC(=O)c1ccc2nc(-c3ccc(F)cc3)c(-c3ccc(F)cc3)nc2c1 [BC18470] | < 100 nM | –
CN1CCN(C(=O)c2ccc3nc(-c4ccc(F)cc4)c(-c4ccc(F)cc4)nc3c2)CC1 [BC18482] | < 100 nM | –
O=C(NCc1ccccc1)c1ccc2nc(-c3ccccc3)c(-c3ccccc3)nc2c1 [BC18475] | > 10000 nM | –
CCS(=O)(=O)c1oc(-c2ccccc2)nc1S(=O)(=O)c1ccc(Cl)cc1 [BC18524] | 1000 to 10000 nM | –
CCCNC(=O)c1ccc2nc(-c3ccccc3)c(-c3ccccc3)nc2c1 [BC18454] | 100 to 1000 nM | –
CCCNC(=O)c1ccc2nc(-c3ccc(F)cc3)c(-c3ccc(F)cc3)nc2c1 [BC18415] | < 100 nM | –
O=c1c(S(=O)(=O)c2ccc(F)c(F)c2)c[nH]c2c(F)ccc(Cl)c12 [BC18340] | – | < 100 nM
Cc1cccc(-c2nc3ccc(C(=O)NCCN4CCCCC4)cc3nc2-c2cccc(C)c2)c1 [BC18485] | 1000 to 10000 nM | –
CC(=O)CSc1oc(-c2ccc(C)cc2)nc1S(=O)(=O)c1ccccc1 [BC18525] | > 10000 nM | –
CCSc1oc(-c2ccccc2)nc1S(=O)(=O)c1ccccc1 [BC18512] | 1000 to 10000 nM | –
COc1cc2c(=O)c(S(=O)(=O)c3ccccc3)cn(Cc3cccc(Cl)c3)c2cc1OC [BC18337] | – | > 10000 nM
Cc1cccc(-c2nc3ccc(C(=O)NC(C)C)cc3nc2-c2cccc(C)c2)c1 [BC18479] | 1000 to 10000 nM | –
CCNC(=O)c1ccc2nc(-c3ccc(F)cc3)c(-c3ccc(F)cc3)nc2c1 [BC18427] | < 100 nM | –
CCN1CCN(CCCNC(=O)c2ccc3nc(-c4ccccc4)c(-c4ccccc4)nc3c2)CC1 [BC18472] | 100 to 1000 nM | –
Cc1ccc(-c2nc3ccc(C(=O)NCc4ccc(Cl)cc4)cc3nc2-c2ccc(C)cc2)cc1 [BC18455] | > 10000 nM | –
CCN1CCN(C(=O)c2ccc3nc(-c4ccccc4)c(-c4ccccc4)nc3c2)CC1 [BC18473] | < 100 nM | –
CCC(C)Sc1oc(-c2ccc(F)cc2)nc1S(=O)(=O)c1ccc(C)cc1 (stereo not drawn) [BC18517] | 1000 to 10000 nM | –
CCCCS(=O)(=O)c1oc(-c2ccc(F)cc2)nc1S(=O)(=O)c1ccc(C)cc1 [BC18509] | < 100 nM | –
CCCCSc1oc(-c2ccc(F)cc2)nc1S(=O)(=O)c1ccc(Cl)cc1 [BC18519] | > 10000 nM | –
Cc1ccc2[nH]cc(S(=O)(=O)c3ccc(C#N)cc3)c(=O)c2c1 [BC18311] | – | > 10000 nM
CCOc1ccc(-c2nc3ccc(C(=O)NCCN(C)Cc4ccccc4)cc3nc2-c2ccc(OCC)cc2)cc1 [BC18488] | 1000 to 10000 nM | –
O=C(NCc1cccnc1)c1ccc2nc(-c3ccccc3)c(-c3ccccc3)nc2c1 [BC18405] | < 100 nM | –
CC(C)NC(=O)c1ccc2nc(-c3ccccc3)c(-c3ccccc3)nc2c1 [BC18443] | < 100 nM | –

Further lines, results first:

IC50 (LPS-stimulated) | IC50 [1] | SMILES
< 100 nM | – | CC(C)S(=O)(=O)c1oc(-c2ccc(F)cc2)nc1S(=O)(=O)c1ccccc1 [BC18531]
– | > 10000 nM | CCOc1ccccc1NS(=O)(=O)c1cc2c(cc1C)NC(=O)CO2 [BC181379]
– | > 10000 nM | CCOc1ccc(NS(=O)(=O)c2cc3c(cc2C)N(C(C)=O)CCO3)cc1 [BC181340]
1000 to 10000 nM | – | Cc1ccc(S(=O)(=O)c2nc(-c3ccc(F)cc3)oc2SCC(C)C)cc1 [BC18529]
– | 1000 to 10000 nM | CCc1ccc(NS(=O)(=O)c2cc3c(cc2C)N(C(C)=O)CCO3)cc1 [BC181329]
– | > 10000 nM | CC(=O)N1CCOc2cc(S(=O)(=O)Nc3c(C)cccc3C)c(C)cc21 [BC181318]
– | < 100 nM | Cc1ccc(NS(=O)(=O)c2cc3c(cc2C)NC(=O)CO3)cc1 [BC181370]
< 100 nM | – | Cc1ccc(S(=O)(=O)c2nc(-c3ccc(F)cc3)oc2S(=O)(=O)C(C)C)cc1 [BC18586]
> 10000 nM | – | O=S(=O)(c1ccccc1)c1nc(-c2ccccc2)oc1SCc1ccccc1F [BC18534]
> 10000 nM | – | CCSc1oc(-c2ccc(F)cc2)nc1S(=O)(=O)c1ccc(Br)cc1 [BC18563]
– | 1000 to 10000 nM | Cc1cc2c(cc1S(=O)(=O)Nc1ccc(Cl)cc1)OCCN2C [BC181330]
1000 to 10000 nM | – | CC(C)Sc1oc(-c2ccc(F)cc2)nc1S(=O)(=O)c1ccccc1 [BC18548]
– | > 10000 nM | COc1cc(NS(=O)(=O)c2cc3c(cc2C)NC(=O)CO3)cc(OC)c1OC [BC181324]
< 100 nM | – | CC(C)S(=O)(=O)c1oc(-c2ccc(F)cc2)nc1S(=O)(=O)c1ccc(F)cc1 [BC18554]
– | > 10000 nM | Cc1ccc(C)c(NS(=O)(=O)c2cc3c(cc2C)NC(=O)CO3)c1 [BC181335]
– | > 10000 nM | CCOc1ccc(OCC)c(NS(=O)(=O)c2cc3c(cc2C)NC(=O)CO3)c1 [BC181337]

IC50 (LPS-stimulated) | IC50 [1] | SMILES
– | 1000 to 10000 nM | COc1ccc(NS(=O)(=O)c2cc3c(cc2C)NC(=O)CO3)cc1 [BC181333]
1000 to 10000 nM | – | CCCSc1oc(-c2ccc(F)cc2)nc1S(=O)(=O)c1ccc(C)cc1 [BC18571]
< 100 nM | – | CCS(=O)(=O)c1oc(-c2ccc(F)cc2)nc1S(=O)(=O)c1ccc(Br)cc1 [BC18577]
> 10000 nM | – | CSc1oc(-c2ccc(C)cc2)nc1S(=O)(=O)c1ccc(Cl)cc1 [BC18536]
> 10000 nM | – | CCCCCSc1oc(-c2ccc(F)cc2)nc1S(=O)(=O)c1ccc(F)cc1 [BC18540]
– | < 100 nM | CCc1ccc(NS(=O)(=O)c2cc3c(cc2C)NC(=O)CO3)cc1 [BC181367]
– | > 10000 nM | Cc1ccc(NS(=O)(=O)c2cc3c(cc2C)N(C)CCO3)cc1F [BC181309]
– | 100 to 1000 nM | CC(=O)N1CCOc2cc(S(=O)(=O)Nc3ccc(C)c(F)c3)c(C)cc21 [BC181383]
1000 to 10000 nM | – | CCSc1oc(-c2ccccc2)nc1S(=O)(=O)c1ccc(F)cc1 [BC18556]
– | > 10000 nM | Cc1cc2c(cc1S(=O)(=O)Nc1cccc(F)c1)OCCN2C [BC181363]
> 10000 nM | – | CCCSc1oc(-c2ccc(F)cc2)nc1S(=O)(=O)c1ccc(F)cc1 [BC18572]
– | > 10000 nM | Cc1cc2c(cc1S(=O)(=O)Nc1c(C)cccc1C(C)C)OCC(=O)N2 [BC181313]
– | > 10000 nM | Cc1cc2c(cc1S(=O)(=O)Nc1ccc(CCC(=O)O)cc1)OCC(=O)N2 [BC181300]
– | > 10000 nM | CC(=O)N1CCOc2cc(S(=O)(=O)Nc3ccccc3Br)c(C)cc21 [BC181339]
– | > 10000 nM | CCc1cccc(CC)c1NS(=O)(=O)c1cc2c(cc1C)NC(=O)CO2 [BC181325]
– | < 100 nM | CCOc1ccc(NS(=O)(=O)c2cc3c(cc2C)NC(=O)CO3)cc1 [BC181302]
